# Assay results reported in US8461122B2, “Derivatives of morphine-6-glucuronide, preparation method thereof and use of same in therapeutics” (Sanofi, priority 2008, dated 2013).
# Where two headings read alike, the source gives them in different places.
# Test system: male Swiss mice
# Conditions: tail-flick; for ED50 60 min. post-administration: Table 2 (sc); for Duration of action / % MPE max: subcutaneous
# Protocol: Tests consisting in measuring the in vivo activity of the compounds of the invention on a nociceptive reflex response were performed. In this approach, the latency of the animal's nociceptive reflex response is measured as a pain indicator.
# The analgesic activity was determined by means of the “tail-flick” test in male Swiss mice (Iffa Credo). This test is based on the spontaneous nociceptive reflex of removal of the animal's tail caused by a painful heat stimulus (infrared source). The “tail-flick” test (D'Amour-Smith test, 1941, Pharmacol. Exp. Ther.; 72: 74-79) consists, after administering a product, in placing a mouse's tail at the focal point of the infrared source so as to produce a nociceptive heat stimulus (surface temperature of about 55-60° C.). The mouse's reaction time (RT) (latency between the moment when the light beam is switched on and the moment when the mouse removes its tail) was measured in duplicate at different times ranging from 20 minutes to 120 minutes after administration of the product. The heat intensity is regulated such that this removal reflex is between 0.5 and 3.5 seconds in the control animals, and arbitrarily represents the criterion for minimum analgesia (0%). Two reaction time measurements were taken before administration of the product for each mouse, to establish a baseline measurement time. A maximum time of 8 seconds was chosen as the maximum reaction time so as not to induce tissue damage by burning the animals, and arbitrarily represents the criterion for maximum analgesia (100%). The reaction time is increased by the analgesics relative to a control animal not receiving any treatment. The products were administered subcutaneously and orally at doses of between 1.25 and 30 mg/kg (expressed as salt).
# The percentage of analgesic activity (% MPE) is determined by the following formula: % MPE=(RTpost-administration−RTpre-administration)*100/(RTmax−RTpre-administration)
# [1] = dose 1.25 mg/kg (expressed as salt)
# [2] = dose 10 mg/kg (expressed as salt)
Compound,ED50 60 min. post-administration,Duration of action (dose 5 mg/kg),% MPE max (dose 5 mg/kg (expressed as salt)),Duration of action (dose 1.25 mg/kg),% MPE max [1],"ED50 at 60 minutes (oral, 60 minutes)","percentage of maximum analgesic activity (% MPE max index) (oral, dose 10 mg/kg)",Duration of action (dose 10 mg/kg),% MPE max [2]
"Morphin-6-yl 5-C-(2-methyl-1,3,4-oxadiazol-5-yl)-α/β-D-xylopyranoside trifluoroacetate [Compound 3]",3.2 mg/kg,>120 (5) minutes,100 (5) %,,,,,,
"CN1CC[C@]23c4c5ccc(O)c4O[C@H]2[C@@H](O[C@@H]2O[C@H](c4nn[nH]n4)[C@@H](O)[C@H](O)[C@H]2O)C=C[C@H]3[C@H]1C5.O=C(O)C(F)(F)F [Compound 2, Morphin-6-yl 5-C-(tetrazol-5-yl)-β-d-xylopyranoside trifluoroacetate]",<1.25 mg/kg,,,>120 (1.25) minutes,100 (1.25) %,,,,
"Cc1nnc(C2O[C@@H](O[C@H]3C=C[C@H]4[C@H]5Cc6ccc(O)c7c6[C@@]4(CCN5C)[C@H]3O7)[C@H](O)[C@@H](O)[C@@H]2O)o1.O=C(O)C(F)(F)F (stereo partly drawn) [Compound 5, Morphin-6-yl 5-C-(2-methyl-1,3,4-oxadiazol-5-yl)-β-D-xylopyranoside trifluoroacetate]",<1.25 mg/kg,,,>120 (1.25) minutes,100 (1.25) %,less than 2.5 mg/kg,78%,,
Morphin-6-yl 5-C-(tetrazol-5-yl)-αβ-D-xylopyranoside trifluoroacetate [Compound 1],10 mg/kg,,,,,,,>120 (10) minutes,50 (10) %
"Cc1nnc(C2O[C@H](O[C@H]3C=C[C@H]4[C@H]5Cc6ccc(O)c7c6[C@@]4(CCN5C)[C@H]3O7)[C@H](O)[C@@H](O)[C@@H]2O)o1.O=C(O)C(F)(F)F (stereo partly drawn) [Compound 4, Morphin-6-yl 5-C-(2-methyl-1,3,4-oxadiazol-5-yl)-α-D-xylopyranoside trifluoroacetate]",8 mg/kg,,,,,,,90 (10) minutes,65 (10) %
